Experimental data as given in patent US7056891B2 (priority 2000, dated 2006).
Like-named read-outs stand apart in the source and are kept apart here.

What was measured:
TSST-1 = assay type: cell-based, S. aureus MN8
S. aureus MN8 = assay type: cell-based, Staphylococcus aureus; settings: 24 hours at 35° C.

Steareth-2
TSST-1 (TSST-1; 24 hours at 35° C.): 680.7 ng/mL
Final [S. aureus] (S. aureus MN8): 5.76 x10^9 CFU/ml

PPG-5 Laureth-5
TSST-1 (TSST-1): 609.2 ng/mL
Final [S. aureus] (S. aureus MN8): 3.82 x10^9 CFU/ml

Laureth-4
TSST-1 (TSST-1; 24 hours at 35° C.): 531.8 ng/mL
Final [S. aureus] (S. aureus MN8): 4.57 x10^9 CFU/ml
